Source: paper PMC7047128, “The Putative TCP-1 Chaperonin Is an Important Player Involved in Sialic Acid-Dependent Host Cell Invasion by Toxoplasma gondii” (Frontiers in Microbiology, 2020)

Biological target: T1, TgTCP-1 (putative TCP-1 chaperonin, TGME49_318410) (Toxoplasma gondii, UniProt A0A125YLR8)
T1 construct: full-length CDS, aa 1-537, N-terminal GST tag kept (pGEX-4T-1), E. coli BL21 (DE3), about 85 kDa
Test: pull-down on sialic acid-agarose with competition by free sialic acid, anti-GST Western blot
Format: binding
Conditions: 1 uM GST-TgTCP-1; free sialic acid 0.001-100 mg/mL; PBS wash; 4 C

T1 sequence (A0A125YLR8 entry or part of it): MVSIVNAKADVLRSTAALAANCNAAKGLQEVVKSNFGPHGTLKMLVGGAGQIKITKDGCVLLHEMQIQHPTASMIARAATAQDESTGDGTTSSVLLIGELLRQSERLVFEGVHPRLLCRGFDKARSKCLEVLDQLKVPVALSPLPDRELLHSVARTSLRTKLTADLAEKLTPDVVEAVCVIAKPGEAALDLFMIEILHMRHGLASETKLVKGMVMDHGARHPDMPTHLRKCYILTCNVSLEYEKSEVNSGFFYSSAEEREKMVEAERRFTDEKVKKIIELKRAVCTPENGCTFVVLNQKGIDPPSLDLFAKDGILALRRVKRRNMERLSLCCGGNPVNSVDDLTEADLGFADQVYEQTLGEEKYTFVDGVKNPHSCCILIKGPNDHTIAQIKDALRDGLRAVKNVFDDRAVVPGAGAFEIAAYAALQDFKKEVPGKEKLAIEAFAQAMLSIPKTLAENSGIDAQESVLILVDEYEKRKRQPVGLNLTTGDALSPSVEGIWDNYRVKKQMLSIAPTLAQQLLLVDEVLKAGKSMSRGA

**Q.** For `CC(=O)N[C@H]1[C@H]([C@H](O)[C@H](O)CO)OC(O)(C(=O)O)C[C@@H]1O` (stereo partly shown) [sialic acid], which “pull-down on sialic acid-agarose with competition by free sialic acid, anti-GST” value is on record?
**A.** Its value is “binding of GST-TgTCP-1 to sialic acid-agarose was inhibited by sialic acid in a dose dependent manner”.
